Test results: US20240285545A1, “NANOSUSPENSION FORMULATION FOR TREATMENT OF PULMONARY FIBROSIS” (The Johns Hopkins University, priority 2023, published 2024)

Experiments:
[1] = oral administration of 100 mg/kg NTB, prior studies; cited from earlier work
[2] = system: silicotic animals; details: daily oral 100 mg/kg; model with lower silica dose (2.5 mg/mouse); cited from earlier work
[3] = free-base form; cited from earlier work
[4] = system: silica-induced pulmonary fibrosis model; test: Therapeutic efficacy in silica-induced pulmonary fibrosis model (histology, lung mechanics); format: in vivo, C57BL/6 mice; details: oral 100 mg/kg daily
Method: The Study design for assessing the therapeutic efficacy of NTB-NS in a preclinical silica-induced pulmonary fibrosis model is shown in FIG. 7. The silicosis model was established by a single intratracheal instillation of silica microparticles (800 mg/kg) into the lungs of C57BL/6 mice (Silicosis); in parallel, healthy control animals received saline in an identical manner (Control). Fifteen days after the silica instillation, animals were randomly assigned to different groups to receive oral daily doses of NTB-Esy at 100 mg/kg or intratracheal NTB-NS at a NTB dose of 0.1 or 1 mg/kg every 72 hours. Lungs were harvested for analysis at Day 34. IT: intratracheal; OR: oral. […]
For lung mechanics analysis at the end of treatments, mice were sedated with diazepam (1 mg/kg, intraperitoneal), anesthetized with thiopenthal sodium (20 mg/kg, intraperitoneal), tracheotomized, paralyzed with vecuronium bromide (0.005 mg/kg, intravenous), and ventilated with a constant flow ventilator (Samay VR 15, Montevideo, Uruguay) using the following parameters: frequency 100 breaths/min; tidal volume 0.2 mL; fraction of inspired oxygen 0.21. […] Data were analyzed using ANADAT data analysis software (RHT-InfoData Inc., Montreal Canada).
For histological analysis, left lung tissues were fixed with 4% paraformaldehyde and embedded in paraffin blocks. […] The granuloma fraction was calculated as follows: […]

## COC(=O)c1ccc2c(c1)NC(=O)/C2=C(\Nc1ccc(N(C)C(=O)CN2CCN(C)CC2)cc1)c1ccccc1 [NTB, Nintedanib]
[1]
  Amount of drug available in mouse lungs: approximately 2.5 μg
[2]
  Fibrotic score in the lungs of silicotic animals: significantly reduces
[3]
  Aqueous solubility: low aqueous solubility

## CCS(=O)(=O)O.COC(=O)c1ccc2c(c1)NC(=O)/C2=C(\Nc1ccc(N(C)C(=O)CN2CCN(C)CC2)cc1)c1ccccc1 [NTB-Esy, NTB Esylate]
[4]
  Area of collagen deposition in alveolar septa versus untreated silicotic animals: unlike 100 mg/kg oral NTB-Esy, significantly reduced
  Static lung elastance (Est,L): unlike oral NTB-Esy (100 mg/kg, daily), significantly decreased
